# Experimental data published in publication PMC6225118 (2018).
# What was measured:
# [1] = test system: 22AG (DNA, G4) AGGGTTAGGGTTAGGGTTAGGG; test: CD titration; conditions: 100 mM K+; 10 mM lithium cacodylate pH 7.2, 20 °C, 5 µM DNA
# [2] = test system: F21T (DNA, G4) GGGTTAGGGTTAGGGTTAGGG; test: FRET melting; conditions: 10 mM lithium cacodylate pH 7.2, 0.2 µM DNA, 1 µM compound
# [3] = test system: FKit2T (DNA, G4) GGGCGGGCGCGAGGGAGGGG; test: FRET melting; conditions: 10 mM K+, 90 mM Li+; 10 mM lithium cacodylate pH 7.2; 0.2 µM DNA, 1 µM compound
# [4] = test system: F21CTAT (DNA, G4) GGGCTAGGGCTAGGGCTAGGG; test: FRET melting; conditions: 10 mM K+, 90 mM Li+; 10 mM lithium cacodylate pH 7.2; 0.2 µM DNA, 1 µM compound
# [5] = test system: 22AG (DNA, G4) AGGGTTAGGGTTAGGGTTAGGG; test: CD titration, 260 nm, Hill1 fit; conditions: 100 mM Na+; apparent; 10 mM lithium cacodylate pH 7.2, 20 °C, 5 µM DNA
# [6] = test system: ds26 (DNA, duplex) CAATCGGATCGAATTCGATCCGATTG; test: G4-FID, thiazole orange displacement; conditions: 10 mM lithium cacodylate pH 7.4, 20 °C, 0.25 µM DNA; up to 10 equivalents
# [7] = test system: Myc22 (c-myc) (DNA, G4) TGAGGGTGGGTAGGGTGGGTAA; test: G4-FID, thiazole orange displacement; conditions: 10 mM lithium cacodylate pH 7.4, 20 °C; partial displacement, up to 60%
# [8] = test system: 22CTA (DNA, G4) AGGGCTAGGGCTAGGGCTAGGG; test: G4-FID, thiazole orange displacement; conditions: 10 mM lithium cacodylate pH 7.4, 20 °C; partial displacement, saturates at 40–60%
# [9] = test system: FMycT (DNA, G4) TTGAGGGTGGGTAGGGTGGGTAA; test: FRET melting; conditions: 1 mM K+, 99 mM Li+; 10 mM lithium cacodylate pH 7.2; 0.2 µM DNA, 1 µM compound
# [10] = test system: FCEB25wtT (DNA, G4) AAGGGTGGGTGTAAGTGTGGGTGGGT; test: FRET melting; conditions: 1 mM K+, 99 mM Li+; 10 mM lithium cacodylate pH 7.2; 0.2 µM DNA, 1 µM compound
# [11] = test system: FCEB25L111TT (DNA, G4) AAGGGTGGGTGGGTGGGT; test: FRET melting; conditions: 1 mM K+, 99 mM Li+; 10 mM lithium cacodylate pH 7.2; 0.2 µM DNA, 1 µM compound
# [12] = test system: FBcl2T (DNA, G4) AGGGGCGGGCGCGGGAGGAAGGGGGCGGGAGCGGGGCTG; test: FRET melting; conditions: 10 mM K+, 90 mM Li+; 10 mM lithium cacodylate pH 7.2; 0.2 µM DNA, 1 µM compound
binding [1],"ΔTm ([2]; 10 mM K+, 90 mM Li+) [°C]",ΔTm ([2]; 100 mM Na+) [°C],ΔTm [3] [°C],ΔTm [4] [°C],Kd [5] [µM],binding [6],binding [7],binding [8],ΔTm [9] [°C],ΔTm [10] [°C],ΔTm [11] [°C],ΔTm [12] [°C],Compound
yes,11.5 ± 0.6,13.8 ± 0.4,4.1 ± 0.3,5.5 ± 0.2,3.6,no,yes,yes,,,,,Cc1nc(-c2cccc(-c3noc(-c4cccc(-c5nc(-c6cccc(-c7noc(C)n7)n6)no5)n4)n3)n2)no1
yes,10.8 ± 0.4,16.6 ± 0.8,5.3 ± 0.4,4.1 ± 0.1,3.3,no,yes,yes,3.9 ± 0.9,0.9 ± 0.7,0.9 ± 0.8,2.9 ± 0.7,Cc1nc(-c2cccc(-c3noc(-c4cccc(-c5nc(-c6cccc(-c7noc(C)n7)n6)no5)c4)n3)n2)no1
